Like-named read-outs stand apart in the source and are kept apart here.
How the values were obtained:
[1] = biological target: T1, prostaglandin synthetase from beef seminal vesicle (Bos taurus, UniProt O62664); assay: Prostaglandin synthetase activity; assay type: biochemical; details: 10^-6 M; for activity at 1 µM: 1 h, read-out: Prostaglandin Synthesis
T1 construct: purchased; host or cells: beef seminal vesicle
T1 sequence (O62664 25-600): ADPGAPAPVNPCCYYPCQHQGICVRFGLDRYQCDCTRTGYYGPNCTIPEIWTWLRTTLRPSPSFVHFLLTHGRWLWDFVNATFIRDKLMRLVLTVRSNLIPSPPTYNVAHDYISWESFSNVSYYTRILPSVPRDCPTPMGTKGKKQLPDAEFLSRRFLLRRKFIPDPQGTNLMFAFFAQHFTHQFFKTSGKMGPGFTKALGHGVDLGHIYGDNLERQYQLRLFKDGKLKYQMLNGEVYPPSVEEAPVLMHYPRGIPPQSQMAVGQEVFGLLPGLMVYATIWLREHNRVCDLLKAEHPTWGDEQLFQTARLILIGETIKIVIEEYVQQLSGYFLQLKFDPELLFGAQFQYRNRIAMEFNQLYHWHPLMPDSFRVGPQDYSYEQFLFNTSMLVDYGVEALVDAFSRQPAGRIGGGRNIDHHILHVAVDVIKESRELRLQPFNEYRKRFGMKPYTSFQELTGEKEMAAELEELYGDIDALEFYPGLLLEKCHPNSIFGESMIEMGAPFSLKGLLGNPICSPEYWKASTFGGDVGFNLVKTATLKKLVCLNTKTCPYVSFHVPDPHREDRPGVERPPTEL
Experimental: After 1 hr at 37° C. the reaction was stopped with 1 N HCl and extracted with ethyl ether and evaporated. […] The plates were dried and developed in iodine vapor and with the use of prostaglandin standards the appropriate areas were scraped and counted for ^3 H content. Indometacin was used as a standard at 10^-4 M concentration. Test drugs were used at 10^-6 M.

[2] = system: liver mitochondria; assay: Oxidative phosphorylation, succinate as substrate; assay type: biochemical, rats; details: 5 μmoles; for Oxidative Phosphorylation Succinate State 3: ADP stimulated respiration; for Oxidative Phosphorylation Succinate State 4: basal respiration
Experimental: (§1) Basal and adenosine diphosphate stimulated respiration on 10% liver homogenates was measured using succinate or αketoglutarate as substrate. See Glatt, et al., supra. The reaction vessel contained sucrose 55μ moles, KCl 22μ moles, K2 HPO4 22μ moles, test compounds at 5μ moles in 1% CMC and sodium succinate 90μ moles or αketoglutarate 60μ moles in a total volume of 1.8 ml. […] The rate of respiration was calculated at μl of O2 consumed/hr/mg wet weight of liver.

[3] = system: liver mitochondria; assay: Oxidative phosphorylation, α-ketoglutarate as substrate; assay type: biochemical, rats; details: 5 μmoles; for Oxidative Phosphorylation α Ketoglutarate State 3: ADP stimulated respiration; for Oxidative Phosphorylation α Ketoglutarate State 4: basal respiration
Experimental: as §1

[4] = in vivo; details: mouse
[5] = system: Cathepsin; assay: Lysosomal free cathepsin activity, liver homogenate; assay type: biochemical, rats; details: 5 μmoles; for Liver % Free Cathepsin Activity, pH5: in vitro, 20 min
Experimental: (§2) Lysosomal enzymatic assays - Sprague Dawley rats (about 160 g) were sacrificed, the liver excised, and a 10% homogenate (4x) in 0.25 M sucrose and 0.001 M (ethylenedinitrilo) tetra acetic acid, ph 7.2 was prepared.
(§3) Acid phosphatase activity (Gianetto et al., Biochem J., 59, 433 1955) was carried out by incubating with 0.1 Mβ-glycerol phosphate in 0.1 M acetate, pH 5.0 with 5 μmoles of test drugs in 1% carboxymethylcellulose (CMC) for 20 min with liver homogenate and 60 min with resuspended PMNs. Lysosome enzymes were released by 0.02% alkyl phenoxy polyethoxy ethanol-100 to obtain the total enzymatic activity. The reaction was stopped with 10% trichloroacetic acid and the solution centrifuged. Aliquots of the supernatant were assayed for inorganic phophate content by the method of Chen et al., Anal Chem., 28, 1756 (1956). Percent free acid phosphatase was calculated. Cathepsin activity was determined in an analagous manner except the substrate used was 2% azocasein (Schleuning et al., Methods in Enzymology, XLV, 330 1976) in 0.1 M acetate buffer pH 5.0. The supernatant was assayed for acid soluble peptide fragments at 366 nm. Percent free cathepsin activity was calculated.

[6] = system: Acid phosphatase; assay: Lysosomal free acid phosphatase activity, PMNs; assay type: cell-based; details: 5 μmoles; for PMNs % Free Acid Phosphatase Activity, pH5: in vitro, 60 min
Experimental: (§4) Polymorphonuclear neutrophils (PMNs) were collected from the peritoneal cavity four hr after the injection of 35 ml of 0.5% oyster glycogen in isotonic saline (Orange et al., J. Exp. Med., 127, 767 1968). The PMNs were centrifuged down at 800 g for 20 min, washed, and resuspended in minumen essential medium (MEM) with 10% fetal calf serum pH 7.4.
as §3

[7] = system: Cathepsin; assay: Lysosomal free cathepsin activity, PMNs; assay type: cell-based; details: 5 μmoles; for PMNs % Free Cathespin Activity, pH5: in vitro, 60 min
Experimental: as §4, §3

[8] = system: Acid phosphatase; assay: Lysosomal free acid phosphatase activity, liver homogenate; assay type: biochemical, rats; details: 5 μmoles, in vitro; 20 min
Experimental: as §2, §3

[9] = system: carrageenan induced edema in mouse foot pads; assay: Anti-inflammatory screen (carrageenan induced foot edema); assay type: in vivo, mice; details: for Anti-inflammatory Screen: mice
Experimental: CF1 male mice (about 30 g) were administered test drugs at 10 mg/kg in 0.05% polysorbate .80-water intraperitoneally 3 hr and 30 min prior to 0.05 ml of 2% carrageenan in 0.9% saline injected into the plantar surface of the right hind foot. Saline injected into the left hind foot served as a base line. After 3 hr, both feet were excised at the tibiotarsal (ankle) joint according to the modified (Roszkowski et al., J. Pharm. Exp. Ther., 179, 114 1971) method of Winter, resulting in an 87 mg net increase in the weight of the control animals' feet.

[10] = system: cAMP levels in PMNs; assay: Cyclic-3',5'-adenosine monophosphate levels (cAMP) in PMNs; assay type: cell-based; details: 1 h
Experimental: as §4
Isolated PMNs were incubated with test drugs at 5μ moles for 1 hr at 37° C. in MEM at pH 7.4. The reaction was stopped with 6% trichloroacetic acid. The cyclic-3',5'-adenosine monophosphate levels were determined by the radioimmunoassay of Gilman, Proc. Natl. Acad. Sci. (USA), 67, 305 (1970), using 3H(G)-cyclic-3',5'-adenosine monophosphate (39.8 Cu/m mol). Results were calculated in p mole/10^7 PMNs cells.

[11] = system: CF1 male mice; assay: Writhing reflex (acetic acid); assay type: in vivo; details: for Writhing Reflex: 20 mg/kg intraperitoneally, mice
Experimental: CF1 male mice were administered test drugs at 20 mg/kg intraperitoneally 20 min (see Hendershat et al., J. Pharmacol Exp. Ther. 125, 237 1959) prior to the administration of 0.5 ml of 0.6% acetic acid (Vingar et al., European J. PHarmacol, 37, 23 1976). After 5 min the number of stretches, characterized by repeated contractures of the abdominal musculature accompanied by extension of the hind limbs, was counted for the next 10 min. The control mice had 78 stretch reflexes per 10 min.

[12] = pH 7.4, 5 μmoles, in vitro, read-out: PMNs cAMP Level

| SMILES | activity at 1 µM [1] | Oxidative Phosphorylation Succinate State 3 [2] | Oxidative Phosphorylation Succinate State 4 [2] | uncoupling with α-ketoglutarate as substrate [3] | Oxidative Phosphorylation α Ketoglutarate State 3 [3] | Oxidative Phosphorylation α Ketoglutarate State 4 [3] | LD50 [4] | Liver % Free Cathepsin Activity, pH5 [5] | PMNs % Free Acid Phosphatase Activity, pH5 [6] | PMNs % Free Cathespin Activity, pH5 [7] | Liver % Free Acid Phosphatase Activity, pH5 [8] | Anti-inflammatory Screen ([9]; 10 mg/kg × 2 intraperitoneally) | activity at 5 µmol [10, 12] | Writhing Reflex [11] | other results |
| --- | --- | --- | --- | --- | --- | --- | --- | --- | --- | --- | --- | --- | --- | --- | --- |
| [BH3-][NH2+]C(C)(C)C [Compound I, (CH3)3 CNH2.BH3] | 100 ± 3% | 63 ± 8 % Control | 118 ± 11 % Control | uncoupling | 63 ± 14 % Control | 160 ± 35 % Control | 16 mg/kg | 58 ± 5 % Control | 100 ± 9 % Control | 100 ± 4 % Control | 77 ± 4 % Control | 41 % Control | 58% |  | inhibition of the carrageenan induced edema in mouse foot pads ([9]; text summary of Table II): at least 50% |
| [BH3-][N+](C)(C)C [Compound III, (CH3)3 N.BH3] | 61 ± 3% | 56 ± 12 % Control | 117 ± 11 % Control |  | 28 ± 10 % Control | 71 ± 8 % Control | 740 mg/kg | 17 ± 4 % Control | 57 ± 4 % Control | 18 ± 3 % Control | 72 ± 6 % Control | 65 % Control | 145% | 47 % Control | inhibition at 1 µM ([1]; read-out: inhibition of prostaglandin synthesis): > 30%; both states 3 and 4 respiration with α-ketoglutarate [3]: inhibited; inhibition of free proteolytic cathepsin activity of liver [5]: at least 75%; inhibition of free acid phosphatase activity in PMNs [6]: 43%; inhibition of PMN cathepsin activity [7]: at least 82%; activation at 5 µmol ([10]; in vitro incubation, 5 μmoles, read-out: increase of cyclic adenosine monophosphate levels in PMNs): 45% |
| [BH3-][NH+](C)C [IV, (CH3)2 NH.BH3] | 100 ± 5% | 82 ± 4 % Control | 119 ± 9 % Control |  | 53 ± 16 % Control | 67 ± 18 % Control | 200 mg/kg | 67 ± 3 % Control | 82 ± 6 % Control | 65 ± 5 % Control | 82 ± 3 % Control | 66 % Control | 80% | 37 % Control | both states 3 and 4 respiration with α-ketoglutarate [3]: inhibited |
| CCNC(=O)[BH2-][N+](C)(C)C [VII, (CH3)3 N.BH2 CON(H)CH2 CH3] | 100 ± 7% | 74 ± 9 % Control | 114 ± 13 % Control | uncoupling | 45 ± 18 % Control | 113 ± 37 % Control | 320 mg/kg |  | 100 ± 2 % Control | 22 ± 5 % Control | 78 ± 7 % Control | 63 % Control | 98% | 29 % Control | inhibition of the writhing reflex ([11]; text summary of Table II): 70% |
| CCNC(=O)[BH2-][N+](C)(C)CC[N+](C)(C)[BH2-]C(=O)NCC [XIII, N,N,N^1,N^1 -Tetramethylethylenediamine-bis(N-ethylamidoborane)] | 100 ± 4% | 66 ± 8 % Control | 117 ± 8 % Control | uncoupling | 50 ± 24 % Control | 162 ± 43 % Control | > 1000 mg/kg |  | 100 ± 7 % Control | 70 ± 6 % Control | 74 ± 4 % Control | 65 % Control | 92% | 55 % Control |  |
| O=C(O)[BH2-][n+]1ccccc1 [XVI, Pyridine-carboxyborane] | 76 ± 5% | 75 ± 15 % Control | 110 ± 13 % Control |  | 63 ± 15 % Control | 109 ± 30 % Control |  | 58 ± 4 % Control | 100 ± 5 % Control | 31 ± 4 % Control | 77 ± 8 % Control |  |  | 53 % Control | Anti-inflammatory Screen ([9]; 1/3 dose (of 10 mg/kg × 2)): 74 % Control; activity at 5 µmol ([10]; pH 7.4, read-out: PMNs cAMP Level): 100% |
| CCOC(=O)[BH2-][N+](C)(C)C [XVIII, (CH3)3 N.BH2 COOCH2 CH3] |  | 61 ± 19 % Control | 119 ± 18 % Control |  | 54 ± 8 % Control | 126 ± 51 % Control | > 500 mg/kg |  |  | 16 ± 3 % Control |  | 87 % Control |  | 106 % Control | inhibition of PMN cathepsin activity [7]: at least 82% |

Source: US4368194A, “Pharmacologically active amine boranes” (The United States of America as represented by the …, priority 1981, dated 1983)
